Source: the NIST ThermoML archive (doi:10.1016/j.jct.2010.03.009)

Assay: mn = molality of the nth substance listed, in mol/kg
Conditions: 101 kPa, Liquid; for viscosity: Capillary tube (Ostwald / Ubbelohde) method; for mass density: Vibrating tube method

NC(=O)c1ccccc1O [2-hydroxybenzamide] + C[S+](C)[O-]
Conditions | mass density [kg/m3] | viscosity [mPa·s]
293.15 K, m1 = 0.0069 | 1100.6 | 2.276
293.15 K, m1 = 0.0091 | 1100.66 | 2.279
293.15 K, m1 = 0.0114 | 1100.72 | 2.282
293.15 K, m1 = 0.0137 | 1100.78 | 2.285
293.15 K, m1 = 0.016 | 1100.83 | 2.287
293.15 K, m1 = 0.0183 | 1100.86 | 2.289
293.15 K, m1 = 0.0229 | 1100.92 | 2.294
298.15 K, m1 = 0.0069 | 1095.59 | 2.034
298.15 K, m1 = 0.0091 | 1095.64 | 2.038
298.15 K, m1 = 0.0114 | 1095.68 | 2.042
298.15 K, m1 = 0.0137 | 1095.71 | 2.045
298.15 K, m1 = 0.016 | 1095.76 | 2.048
298.15 K, m1 = 0.0183 | 1095.79 | 2.051
298.15 K, m1 = 0.0229 | 1095.8 | 2.056
303.15 K, m1 = 0.0069 | 1090.56 | 1.881
303.15 K, m1 = 0.0091 | 1090.6 | 1.884
303.15 K, m1 = 0.0114 | 1090.63 | 1.887
303.15 K, m1 = 0.0137 | 1090.66 | 1.889
303.15 K, m1 = 0.016 | 1090.69 | 1.892
303.15 K, m1 = 0.0183 | 1090.7 | 1.894
303.15 K, m1 = 0.0229 | 1090.73 | 1.899
308.15 K, m1 = 0.0069 | 1085.51 | 1.732
308.15 K, m1 = 0.0091 | 1085.56 | 1.737
308.15 K, m1 = 0.0114 | 1085.59 | 1.742
308.15 K, m1 = 0.0137 | 1085.63 | 1.747
308.15 K, m1 = 0.016 | 1085.66 | 1.752
308.15 K, m1 = 0.0183 | 1085.69 | 1.756
308.15 K, m1 = 0.0229 | 1085.72 | 1.763
310.15 K, m1 = 0.0069 | 1083.5 | 1.644
310.15 K, m1 = 0.0091 | 1083.55 | 1.645
310.15 K, m1 = 0.0114 | 1083.58 | 1.646
310.15 K, m1 = 0.0137 | 1083.6 | 1.647
310.15 K, m1 = 0.016 | 1083.62 | 1.647
310.15 K, m1 = 0.0183 | 1083.65 | 1.648
310.15 K, m1 = 0.0229 | 1083.66 | 1.649
313.15 K, m1 = 0.0069 | 1080.47 | 1.563
313.15 K, m1 = 0.0091 | 1080.52 | 1.564
313.15 K, m1 = 0.0114 | 1080.55 | 1.565
313.15 K, m1 = 0.0137 | 1080.58 | 1.566
313.15 K, m1 = 0.016 | 1080.6 | 1.567
313.15 K, m1 = 0.0183 | 1080.62 | 1.567
313.15 K, m1 = 0.0229 | 1080.64 | 1.569
